These are literature values, as cited in US6929797B2, “Targeted therapeutic delivery of vitamin D compounds” (Bone Care International, Inc., priority 1997, dated 2005).

Structures are written as SMILES. Like-named read-outs stand apart in the source and are kept apart here.

For data set [1] the following is noted: 0.5 μg/day, postmenopausal women.
Assay in data set [2]: not given
This is another data set of the same source.

In the case of `C=C1/C(=C\C=C2/CCC[C@]3(C)[C@@H]([C@H](C)CCCC(C)(C)O)CC[C@@H]23)C[C@@H](O)C[C@@H]1O` [1α,25-dihydroxyvitamin D3], the “effects on bone mass or mineral content” value (dosage levels below 0.5 μg/day) is recorded as “no effects”. The “intestinal calcium absorption and calcium balance” value in data set [1] is recorded as “improved”. Besides, the “toxicity (hypercalcemia and hypercalciuria)” value in data set [2] (above 0.5 μg/day) is reported as “frequently resulted in toxicity”.

For `C=C1/C(=C\C=C2/CCC[C@]3(C)[C@@H]([C@H](C)CCCC(C)C)CC[C@@H]23)C[C@@H](O)C[C@@H]1O` [1α-hydroxyvitamin D3], where the note is “1 μg/day, Japan, population with low calcium intake”, the “efficacy (bone mass or bone mineral content)” value is “efficacy is found”. For the same compound, the bone mass result (Two μg/day, patients exhibiting senile osteoporosis) is listed as “efficacy in increasing bone mass”. Moreover, the figures for the “patients in whom toxicity occurs” value in data set [2] (1 μg/day) and in data set [2] (2 μg/day) were “approximately 20%” and “approximately 67%”, respectively.
